Assays:
[1] = tested on: HMEC, HEK293T, MDA-MB-231, Kelly cells; assay: Cell viability assay (CellTiter-Blue); assay type: cell-based, human; conditions: 5 days treatment
Procedure: By endpoint, CellTiter-Blue reagent (Promega) was added to each well, incubated for 3 h at 37°C and absorbance was measured with a plate reader at 570nm. Average background absorbance value was subtracted from all readings when plotting the viability curve.

cMYC-EGFP-DCD19 = assay: Flow cytometry of EGFP signal, cMYC-EGFP-DCD19 in HMEC; assay type: cell-based, human; conditions: 10uM, 4h
Excerpt: (§1) To systematically delineate the optimal DCD/degrader combination for targeted protein degradation, we undertook a matrix approach evaluating all 23 DCD tags against 6 small molecule degraders. […] To control for any potential off-target effects of the IMiD/CeLMOD agents that could indirectly affect the target of interest, we designed controls in which the specific DCD and the EGFP sequences were interspaced by a P2A ribosomal “skipping” sequence,[32] leading to separate translation of the DCD and the target protein (Figure 1A). These constructs were then inserted into a doxycycline-inducible lentiviral vector system and stably expressed in hTERT immortalized human mammary epithelial cells (HMEC), a suitable model to assess the functional consequences of cMYC degradation. cMYC was tagged at the C-terminus end for the initial screening experiments.
(§2) Figure 1 Design and experimental evaluation of the DCD tags (A) Representation of the experimental pipeline used to evaluate the different DCD constructs. […] Median EGFP intensity was measured in each condition using flow cytometry (3 independent experiments, normalized to the control and represented as mean ± SD). […] The protein lysates were probed for cMYC levels using western blotting. […] Target loss was evaluated either by measuring EGFP median intensity using flow cytometry or western blotting for cMYC protein (3 independent experiments, normalized to the control and represented as mean ± SD). […] Target loss was evaluated as in (D) (3 independent experiments, normalized to the control and represented as mean ± SD). […] Protein lysates were collected and probed for cMYC and p21 using western blotting. […] Protein lysates were collected and probed for cMYC and p21 using western blotting. […] These were left out as controls with no test substance.
(§3) Following degrader treatment cells were collected and DAPI was added to the cell suspension at 1 μg/mL to allow the exclusion of dead cells. EGFP signal was measured using BD LSR II flow cytometer (BD Biosciences). FlowJo 10 Software (FlowJo) was used for data processing.

FLuc-EGFP-DCD23 = assay: In vitro luciferase and EGFP signal in MDA-MB-231 (FLuc-EGFP-DCD23); assay type: cell-based, human; conditions: MDA-MB-231, in vitro
cMYC-EGFP-DCD23 = assay: Degradation of cMYC-EGFP-DCD23 in HMEC (flow cytometry, western blotting); assay type: cell-based, human
Excerpt: as §1, §2, §3
Cells were lysed with SDS lysis buffer (2% SDS, 10% Glycerol, 50mM Tris pH 6.8) and boiled at 95°C for 30min. Protein concentration was measured using Pierce BCA Protein Assay Kit (ThermoFischer) following manufacturer’s recommendations. Samples were ran in NuPAGETM 10% Bis-Tris Midi electrophoresis gels (Invitrogen) using NuPAGETM MES SDS running buffer (ThermoFischer Scientific).
For western blotting membranes were blocked in a solution of 5% (w/v) bovine serum albumin (BSA; Sigma-Aldrich) dissolved in TBS-0.1% Tween 20 (Sigma-Aldrich) then incubated at 4°C overnight with the primary antibodies diluted in 5% (w/v) BSA/TBS-T. The membranes where then washed and incubated with anti-mouse and/or anti-rabbit secondary antibodies (LI-COR Biosciences) for 2h at RT diluted in 5% (w/v) BSA/TBS-T then washed and imaged using the LI-COR Odyssey (LI-COR Biosciences). Images were analyzed using Image Studio Lite software (LI-COR Biosciences).

[2] = tested on: RBM39, CDK9, MAPK9, HPRT1, SMS, MAVS (tagged); assay: Western blotting, iTAG versus dTAG at 24h on six targets in SUM159; assay type: cell-based, human; conditions: SUM159, 24h
Procedure: Subsequently, we evaluated the extent of degradation induced by the two tagging systems. For this purpose, we tested targets present in different subcellular localizations at a longer time point (24h): RBM39 (-nuclear 59.3kDa-), CDK9 (Cyclin-dependent kinase 9 -nuclear 42.7kDa-), MAPK9 (Mitogen-activated protein kinase 9 -nuclear 48.1 kDa-), HPRT1 (Hypoxanthine Phosphoribosyltransferase 1-cytoplasmic 24.5kDa-), SMS (Spermine synthase –cytoplasmic 41.2kDa-), and MAVS (Mitochondrial antiviral-signaling protein -mitochondrial 56.5kDa-) (Figure S7).

Flag-HA-DCD19-EGFP = assay: Degradation of Flag-HA-DCD19-EGFP in murine cells; assay type: cell-based, mouse; conditions: 2208L and PyMT, 24 h, western blotting
Procedure: Given the high degradation efficiency of DCD23 in human cells, we sought to test the applicability of this system in murine cells.
The protein lysates were probed for EGFP using western blotting. […] EGFP signal was then measured using flow cytometry. (3 independent experiments, normalized to the control and represented as mean ± SD). […] Data are plotted as Log2 fold change relative to DMSO versus Log10 of p value.

time to decrease in luciferase and EGFP signal (FLuc-EGFP-DCD23): ≤ 3 h | DC50 (cMYC-EGFP-DCD23; HMEC, 4h): 2 nM
SMILES: O=C1CC[C@H](N2Cc3c(OCc4ccc(CN5CCOCC5)cc4)cccc3C2=O)C(=O)N1 [CC220, Iberdomide]
cellular toxicity [1]: did not induce cellular toxicity | loss of cMYC-EGFP signal (cMYC-EGFP-DCD19): robust loss of cMYC-EGFP signal | lowest concentration giving decrease in luciferase and EGFP signal (FLuc-EGFP-DCD23): ≤ 0.05 µM | c-MYC levels after washout (cMYC-EGFP-DCD23; 10μM 4h, then drug washed out, 24h or 48h): restored back to pre-treatment levels | time to significant degradation of c-MYC tagged with DCD23 (cMYC-EGFP-DCD23; HMEC, 10uM): ≤ 15 min | p21 levels after degradation of DCD23-tagged cMYC (cMYC-EGFP-DCD23; HMEC, 10μM, 16h, western blotting): restoration of p21 levels | DCmax at 4h (cMYC-EGFP-DCD23; HMEC, 4h): 75% | degradation compared with dTAG [2]: more effective degradation of the targets even at low nanomolar CC220 concentrations | degradation of DCD19 tagged EGFP (Flag-HA-DCD19-EGFP): not degraded

From paper PMC10285648, “iTAG an optimized IMiD-induced degron for targeted protein degradation in human and murine cells” (iScience, 2023)
